Measured values published in PMC12787000 (Molecules, 2025).

Tests used:
Type in all cases: cell-based
A375 cells [1] = test: Cell cycle distribution (PI, flow cytometry), A375; settings: A375, 25 µM, 72 h
Description: A375 and A375R cells were seeded in 6-well plates at a density of 150,000 cells per well. On the following day, the cells were treated with 25 µM concentrations of compounds 1, 3, and 8, as well as telmisartan. After 72 h of incubation, the cells were harvested using trypsin, washed with phosphate-buffered saline (PBS), fixed in ethanol, and stored at −20 °C until analysis. Ethanol-fixed cells were treated with RNase A (1 mg/mL) and stained with propidium iodide (PI; 400 µg/mL). A total of 20,000 events were recorded per sample. Quantitative analysis of the cell cycle phase distribution was performed by flow cytometry using a FACSCalibur flow cytometer (Becton Dickinson, San Jose, CA, USA) and BD CellQuest Pro Version 5.2.1 software. Experiment was performed three times. Cells under treatment were compared to controls for each cell phase separately with one-way ANOVA and Dunnett’s multiple comparison tests. p < 0.05 was considered statistically significant.

518A2 cells = test: MTT cell viability assay, 518A2; settings: Homo sapiens; 518A2, MTT, 72 h
Description: (§1) A375, MRC-5, and HaCaT cell lines were obtained from the American Type Culture Collection (ATCC). 518A2 cell line was kindly provided by Dr. […]ć. All cell lines were cultured in RPMI 1640 medium supplemented with 2 g/L glucose, 10% fetal bovine serum (FBS), and antibiotics. […] Cell viability was assessed using the MTT assay (Sigma Aldrich, #M5655). […] After 72 h of incubation, absorbance was measured at 570 nm using a Multiskan SkyHigh microplate reader (Thermo Fisher Scientific, Helsinki, Finland). Values were corrected by subtracting the absorbance measured in wells containing cell-free medium with tested compounds.

A375 cells [2] = test: Cellular uptake and subcellular distribution by LC-MS/MS; settings: A375, 25 μM, 24 h; for Compound accumulation normalized to telmisartan, Chromatin Bound: chromatin-bound nuclear fraction; for Compound accumulation normalized to telmisartan, Cytoplasm: cytoplasmic fraction; for Compound accumulation normalized to telmisartan, Cytoskeleton: cytoskeletal fraction; for Compound cell accumulation normalized to telmisartan, Whole Lysate: μmol compound per μg cell protein normalized to telmisartan
Description: Cells were then trypsinized, washed with PBS and pelleted. For whole cell lysates, cell pellet was dissolved in RIPA buffer on ice. Fractions and whole cell lysates were stored at -80 °C until use. Protein concentration of lysates was determined with Pierce BCA Protein assay kit (Thermo Fisher #23225), and cell accumulation was calculated as μmol of compound per μg of cell protein and normalized to telmisartan. Concentrations of telmisartan and its derivatives were determined using liquid chromatography-tandem mass spectrometry (LC-MS/MS) method in positive HESI mode. The analysis was performed on UHPLC chromatograph […] (Thermo Fisher Scientific Inc., Madison, WI, USA), coupled to a triple quadrupole mass spectrometer TSQ Quantum Access MAX (Thermo Fisher Scientific Inc., Madison, WI, USA) with heated electrospray ionization (HESI) interface. The column was Zorbax Extend C18 (150 mm × 4.6 mm, 5 μm particle size). […] Experiment was repeated twice.

A375R cells = test: MTT cell viability assay, vemurafenib-resistant A375R; settings: for IC50: A375R, MTT, 72 h
Description: as §1

| Structure (SMILES) | Cell cycle distribution (A375 cells [1]) | IC50 (518A2 cells) [µM] | Compound accumulation normalized to telmisartan, Chromatin Bound (A375 cells [2]) | Compound accumulation normalized to telmisartan, Cytoplasm (A375 cells [2]) | Compound accumulation normalized to telmisartan, Cytoskeleton (A375 cells [2]) | Accumulation in the membrane fraction (A375 cells [2]; membrane fraction) [µmol/L] | Compound cell accumulation normalized to telmisartan, Whole Lysate (A375 cells [2]) | Selectivity (A375R cells; A375R versus normal cell lines (HaCaT, MRC-5), from IC50 values) | IC50 (A375R cells) [µM] | Compound accumulation normalized to telmisartan, Membrane (A375 cells [2]; membrane fraction) |
| --- | --- | --- | --- | --- | --- | --- | --- | --- | --- | --- |
| CCCc1nc2c(C)cc(-c3nc4ccccc4n3C)cc2n1Cc1ccc(-c2ccccc2C(=O)NC(Cc2ccccc2)C(=O)O)cc1 (centres unmarked) [compound 8, 2-{[4′-(1,7′-dimethyl-2′-propyl-1H-[2,5′]bibenzoimidazolyl-3′-ylmethyl)-biphenyl-2-carbonyl]-amino}-3-phenyl-propionic acid] | increased accumulation of cells in the subG1 phase, albeit not statistically significant | 28.4 ± 2.66 | 11.90 | 11.17 | 7.44 | 26.814 | 4.41 | > 3.50 | 8.84 ± 1.24 | – |
| CCCc1nc2c(C)cc(-c3nc4ccccc4n3C)cc2n1Cc1ccc(-c2ccccc2C(=O)NC(Cc2ccc(O)cc2)C(=O)O)cc1 (centres unmarked) [compound 3, 2-{[4′-(1,7′-dimethyl-2′-propyl-1H-[2,5′]bibenzoimidazolyl-3′-ylmethyl)-biphenyl-2-carbonyl]-amino}-3-(4-hydroxy-phenyl)-propionic acid] | increased accumulation of cells in the subG1 phase, albeit not statistically significant | 31 ± 2.38 | 0.52 | 3.64 | 0.69 | – | 4.57 | – | 21.1 ± 6.31 | 4.62 |
